Experimental data reported in patent US11685716B2, “Plant growth inhibiting agent, and plant growth inhibiting method using same” (NATIONAL UNIVERSITY CORPORATION KUMAMOTO UNIVERSITY, priority 2017, dated 2023).

Assays:
thale cress [1] = assay: Activities on plants: growth of thale cress on agar medium (Evaluation 1, 6); assay type: in vivo, thale cress (Col-0, wild-type strain); conditions: thale cress Col-0, agar medium, 7 days
Experimental: The test compound (compound (6a)) and DMSO for a control experiment, were added at this stage and blended. Fifty ml each of the medium was dispensed in sterile No. 2 square petri dishes (Eiken Chemical Co., Ltd.) to prepare agar medium. As a plant material, Col-0, which is a wild-type strain of […] used. Seeds, after their surfaces were sterilized, were planted on the agar medium, and vernalized at 4° C. for 16 hours. Growth of the plant was carried out in a growth chamber (SANYO MLR-351) under the conditions of an illuminance of 3 at 23° C. with constant light. The agar medium was allowed to stand upright in the chamber to grow the plant for 7 days. Lids of the petri dishes used for the test were opened, the test results were recorded with a scanner, and with the scanned images, […]

Ragweed = assay: Seed treatment, plant growth inhibition index (Evaluation 11); assay type: in vivo; parameters: key: 0: No effect; 1: Growth of the root part was inhibited 50% or less compared with non-treated area.; 2: Growth of the root part was inhibited 50% or more compared with non-treated area.; 3: Growth of the root part was substantially inhibited.; 4: Germination was inhibited; conditions: 200 μM, 6 days (9a, 9b: 7 days)
Experimental: (§1) The compound of the present invention (2 mg) was dissolved in a 1.5% Tween dimethylformamide solution (100 μL) to use as a test chemical solution.
(§2) Eight mL of sterilized water was poured to a cherry cup (100Φ×45 mm) lined with a filter paper, subsequently 81.1 μL of the sterilized water was removed, and 81.1 μL of the test chemical solution was added such that a final concentration of the compound was 800 μM.
(§3) Further, cherry cups were similarly prepared such that a final concentration of the compound was 200 μM.
(§4) Seeds (Japanese millet: 3 grains, velvet leaf: 6 grains, Ragweed: 8 grains, morning glory: 2 grains) were planted on the filter paper in the cherry cups, followed by growing the plants in a thermostatic chamber at 25° C. under a light-dark cycle in which a light period is 12 hours and a dark period is 12 hours for 6 days.
(§5) In addition, with regards to the compound (9a) and the compound (9b), the plants were tested for 7 days.
(§6) Plant growth inhibition effects of the compounds were evaluated by conversion to indexes according to the following investigation criteria.

Japanese millet = assay: as above; assay type: in vivo; parameters: key: 0: No effect; 1: Growth of the root part was inhibited 50% or less compared with non-treated area.; 2: Growth of the root part was inhibited 50% or more compared with non-treated area.; 3: Growth of the root part was substantially inhibited.; 4: Germination was inhibited; conditions: 200 μM, 6 days (9a, 9b: 7 days)
Experimental: as §1, §2, §3, §4, §5, §6

velvet leaf [2] = assay: as above; assay type: in vivo; parameters: key: 0: No effect; 1: Growth of the root part was inhibited 50% or less compared with non-treated area.; 2: Growth of the root part was inhibited 50% or more compared with non-treated area.; 3: Growth of the root part was substantially inhibited.; 4: Germination was inhibited; conditions: 200 μM, 6 days (9a, 9b: 7 days)
Experimental: as §1, §2, §3, §4, §5, §6

morning glory = assay: as above; assay type: in vivo; parameters: key: 0: No effect; 1: Growth of the root part was inhibited 50% or less compared with non-treated area.; 2: Growth of the root part was inhibited 50% or more compared with non-treated area.; 3: Growth of the root part was substantially inhibited.; 4: Germination was inhibited; conditions: 200 μM, 6 days (9a, 9b: 7 days)
Experimental: as §1, §2, §3, §4, §5, §6

southern crabgrass = assay: Spray treatment to stems and leaves, killing weed index (Evaluation 10); assay type: in vivo; conditions: 2000 g active ingredient per hectare, two weeks later
Experimental: (§7) POA allyl phenyl ether (4.1 parts by weight), POE-POP glycol (1 part by weight), POE sorbitan laurate (0.8 parts by weight), glycerin (2.6 parts by weight), dimethylformamide (65.9 parts by weight), N-methylpyrrolidone (5.1 parts by weight), cyclohexanone (15.4 parts by weight), and aromatic hydrocarbon (5.1 parts by weight) were mixed and dissolved to prepare an emulsion. The compounds of the present invention (4 mg) were dissolved in this emulsion (100 μL) to prepare a test emulsion. In addition, POA means “polyoxyalkylene”, POE means “polyoxyethylene”, and POP means “polyoxypropylene.”
(§8) Four hundred μL of the above test emulsion was diluted with 7600 μL of water to use as a test spray liquid.
(§9) Further, 400 μL of the above test emulsion was diluted with 1600 μL of a 1% Tween20 aqueous solution to use as a spray liquid for a small amount spray test.
(§10) For a comparative spray liquid, 53 μL of a 30% pendimethalin emulsion (Gogosan emulsion: manufactured by BASF Japan) as a control pesticides was diluted with 7947 μL of water. Further, for a comparative spray liquid for a small amount spray test, 53 μL of the 30% pendimethalin emulsion was diluted with 1947 μL of water.
(§11) A 150 cm^2 pot was filled with a soil, seeds of each purple amaranth, Japanese bristlegrass, southern crabgrass, and velvet leaf were sown on the surface layer, lightly covered with a soil and grown in a greenhouse. When each plant grew to a plant height of 2 to 9 cm, the test spray liquid was sprayed to the stem and leaf parts with a small spraying machine such that an active ingredient amount was 2000 g per hectare and a sprayed liquid amount was 1000 L per hectare.
(§12) Similarly, the test spray liquid for a small amount spray test was sprayed to the stem and leaf parts with a small spraying machine such that an active ingredient amount was 2000 g per hectare and a sprayed liquid amount was 250 L per hectare.
(§13) Two weeks later, the above-ground grass weight in non-treated areas and the above-ground grass weight in treated areas, by the weed, were measured to calculate a killing weed rate by the following calculating formula.
(§14) (a) Calculating Formula of Weeding Rate Killing weed rate (%)=(above-ground grass weight in non-treated area−above-ground grass weight in treated area)/(above-ground grass weight in non-treated area)×100 (b) Killing Weed Indexes
(§15) The obtained killing weed rates were evaluated, such that a killing weed index was “10” when a killing weed rate is 100%, as “9” when a killing weed rate is 99% to 90%, “8” when a killing weed rate is 89% to 80%, “7” when a killing weed rate is 79% to 70%, “6” when a killing weed rate is 69% to 60%, “5” when a killing weed rate is 59% to 50%, “4” when a killing weed rate is 49% to 40%, “3” when a killing weed rate is 39% to 30%, “2” when a killing weed rate is 29% to 20%, “1” when a killing weed rate is 19% to 10%, and “0” when a killing weed rate is 9% to 0%.

Japanese bristlegrass = assay: as above; assay type: in vivo; conditions: 2000 g active ingredient per hectare, two weeks later
Experimental: as §7, §8, §9, §10, §11, §12, §13, §14, §15

velvet leaf [3] = assay: as above; assay type: in vivo; conditions: 2000 g active ingredient per hectare, two weeks later
Experimental: as §7, §8, §9, §10, §11, §12, §13, §14, §15

purple amaranth = assay: as above; assay type: in vivo; conditions: 2000 g active ingredient per hectare, two weeks later
Experimental: as §7, §8, §9, §10, §11, §12, §13, §14, §15

thale cress [4] = assay: Plant growth inhibition index, thale cress on agar medium in test tube (Evaluation 8, 9); assay type: in vivo, thale cress (Col-0, wild-type strain); parameters: key: 0: No effect; 1: Growth of the root part was inhibited 50% or less compared with non-treated area.; 2: Growth of the root part was inhibited 50% or more compared with non-treated area.; 3: Growth of the root part was substantially inhibited.; 4: Germination was inhibited; conditions: Concentration 200 μM, 8 days (Evaluation 9, Table 2)
Experimental: 0.44% (w/v) Mixed salts for Murashige and Skoog medium (SIGMA), 1% (w/v) sucrose, and 0.05% (w/v) MES were mixed, and pH of the solution was adjusted to pH 5.7 with potassium hydroxide. 1.5% (w/v) Agar was added to the mixture, which was sterilized at 120° C. in an autoclave for 20 minutes. The test compound and dimethylformamide containing 1.5% of polyoxyethylenesorbitan monolaurate for a control experiment, were added at this stage and blended. In addition, the compound was used by adjusting an addition concentration to 200 μM. Four ml each of the medium was dispensed in sterile glass test tube ([…] RIKA GLASS CO., LTD.) to prepare agar medium.
As a plant material, Col-0, which is a wild-type strain of thale cress, was used.
Seeds, after their surfaces were sterilized, were planted on the agar medium, and the growth of the plant was carried out in a plant incubator (CFH-405) under the conditions of an illuminance of 3 at 23° C. with constant light. The plants on the agar medium were grown for 8 days in the chamber.
The plant growth inhibition effect of the compounds was evaluated by conversion to indexes according to the following investigation criteria.

[5] = sprayed liquid amount 1000 L/ha

| SMILES | twisting of root epidermal cells / abnormality in direction of root growth (thale cress [1]; scanned images) | plant growth inhibition effect (activity on plant growth) (thale cress [1]) | plant growth inhibition index, Ragweed (Ragweed) | plant growth inhibition index, Japanese millet (Japanese millet) | plant growth inhibition index, Velvet leaf (velvet leaf [2]) | plant growth inhibition index, Morning glory (morning glory) | killing weed index, Southern crabgrass (southern crabgrass; sprayed liquid amount 250 L/ha) | killing weed index, Japanese bristlegrass (Japanese bristlegrass; sprayed liquid amount 250 L/ha) | killing weed index, Velvet leaf (velvet leaf [3]; sprayed liquid amount 250 L/ha) | killing weed index, Purple amaranth (purple amaranth; sprayed liquid amount 250 L/ha) | Index (thale cress [4]) | killing weed index, Southern crabgrass (southern crabgrass; [5]) | killing weed index, Japanese bristlegrass (Japanese bristlegrass; [5]) | killing weed index, Velvet leaf (velvet leaf [3]; [5]) | killing weed index, Purple amaranth (purple amaranth; [5]) |
| --- | --- | --- | --- | --- | --- | --- | --- | --- | --- | --- | --- | --- | --- | --- | --- |
| CCOn1cccc1C(=O)O [Compound 6b, 1-Ethoxy-1H-pyrrole-2-carboxylic acid] | epidermal cells of the roots were twisted leftward and abnormality in a direction of the root growth was observed |  |  |  |  |  |  |  |  |  |  |  |  |  |  |
| O=C(O)c1cccn1O [Compound 6c, 1-Hydroxy-1H-pyrrole-2-carboxylic acid] |  | no activity was observed |  |  |  |  |  |  |  |  |  |  |  |  |  |
| CCCCCCCCCOn1cc(Cl)cc1C(=O)O [Compound 9b] |  |  | 0 | 0 | 0 | 3 (Growth of the stem and leave parts was inhibited 30% or more compared with non-treated area, or growth of the only root part was inhibited 60% or more compared with non-treated area.) | 2 (“2” when a killing weed rate is 29% to 20%) | 3 (“3” when a killing weed rate is 39% to 30%) | 2 (“2” when a killing weed rate is 29% to 20%) | 10 (“10” when a killing weed rate is 100%) | 3 |  |  |  |  |
| CCCCCCCCCOn1cccc1C(=O)NC [Compound 9d] |  |  | 3 (Growth of the stem and leave parts was inhibited 30% or more compared with non-treated area, or growth of the only root part was inhibited 60% or more compared with non-treated area.) | 3 (Growth of the stem and leave parts was inhibited 30% or more compared with non-treated area, or growth of the only root part was inhibited 60% or more compared with non-treated area.) | 0 | 0 | 3 (“3” when a killing weed rate is 39% to 30%) | 2 (“2” when a killing weed rate is 29% to 20%) | 3 (“3” when a killing weed rate is 39% to 30%) | 0 (“0” when a killing weed rate is 9% to 0%) | 3 | 2 (“2” when a killing weed rate is 29% to 20%) | 1 (“1” when a killing weed rate is 19% to 10%) | 0 (“0” when a killing weed rate is 9% to 0%) | 0 (“0” when a killing weed rate is 9% to 0%) |
| CCCCCCCCCOn1cccc1C(=O)NCc1ccccc1 [Compound 9e] |  |  | 0 | 3 (Growth of the stem and leave parts was inhibited 30% or more compared with non-treated area, or growth of the only root part was inhibited 60% or more compared with non-treated area.) | 0 | 0 | 2 (“2” when a killing weed rate is 29% to 20%) | 2 (“2” when a killing weed rate is 29% to 20%) | 2 (“2” when a killing weed rate is 29% to 20%) | 0 (“0” when a killing weed rate is 9% to 0%) | 2 (Growth of the root part was inhibited 50% or more compared with non-treated area.) | 2 (“2” when a killing weed rate is 29% to 20%) | 2 (“2” when a killing weed rate is 29% to 20%) | 0 (“0” when a killing weed rate is 9% to 0%) | 0 (“0” when a killing weed rate is 9% to 0%) |
| CCCCCCCCCOn1cccc1C(=O)NCC(F)(F)F [Compound 9f] |  |  | 5 (Growth of the stem and leave parts was inhibited 50% or more compared with non-treated area, or growth of the only root part was inhibited 100% or more compared with non-treated area.) | 3 (Growth of the stem and leave parts was inhibited 30% or more compared with non-treated area, or growth of the only root part was inhibited 60% or more compared with non-treated area.) | 0 | 3 (Growth of the stem and leave parts was inhibited 30% or more compared with non-treated area, or growth of the only root part was inhibited 60% or more compared with non-treated area.) | 2 (“2” when a killing weed rate is 29% to 20%) | 2 (“2” when a killing weed rate is 29% to 20%) | 0 (“0” when a killing weed rate is 9% to 0%) | 0 (“0” when a killing weed rate is 9% to 0%) | 2 (Growth of the root part was inhibited 50% or more compared with non-treated area.) | 3 (“3” when a killing weed rate is 39% to 30%) | 1 (“1” when a killing weed rate is 19% to 10%) | 0 (“0” when a killing weed rate is 9% to 0%) | 0 (“0” when a killing weed rate is 9% to 0%) |
